# Tested on: HT29 cells
# Test: Inhibition of cell necrosis (CCK8 method), induced programmed necrosis of HT29 cells
# Type: cell-based
# Conditions: Homo sapiens, HT-29; rescue from necrosis induced by TNF-α 20 ng/mL, AT-406 1 μM, Z-VAD-FMK 20 μM; 16-20 hours; CCK-8, OD 450 nm
# Method in brief: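 Rescue from programmed necrosis was scored by CCK-8 absorbance at 450 nm after 16-20 h of TNF-α (20 ng/mL), AT-406 (1 μM) and Z-VAD-FMK (20 μM) at 37 °C, 5% CO2. HT29 cells had received compound 30 min earlier across nine 4-fold dilutions (top 25000 nM final). IC50 came from % inhibition relative to uninduced and induced-only wells.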
row,Structure (SMILES),IC50
1,"Cc1ccc(OCCCC(C)C#N)cc1-c1ccnc(NC(=O)c2nnc(Cc3ccccc3)[nH]2)c1 (stereo not shown) [Example 90, 5-benzyl-N-(4-(5-((4-cyanopentyl)oxy)-2-methylphenyl)pyridin-2-yl)-4H-1,2,4-triazole-3-carboxamide]",≤ 100 nM
2,"Cc1ccc(OCCCC(C)(C)O)cc1-c1ccnc(NC(=O)c2nnc(CC3CCCC3)[nH]2)c1 [Example 173, 5-(cyclopentylmethyl)-N-(4-(5-((4-hydroxy-4-methylpentyl)oxy)-2-methylphenyl)pyridin-2-yl)-4H-1,2,4-triazole-3-carboxamide]",≤ 100 nM
3,"CC(C)(O)CCCOc1ccc(C(F)(F)F)c(-c2cc(NC(=O)c3nnc(Cc4ccccc4F)[nH]3)ncn2)c1 [Example 451, 5-(2-fluorobenzyl)-N-(6-(5-((4-hydroxy-4-methylpentyl)oxy)-2-(trifluoromethyl)phenyl)pyrimidin-4-yl)-4H-1,2,4-triazole-3-carboxamide]",≤ 100 nM
4,"O=C(Nc1cc(-c2cccc3c2CCCO3)ccn1)c1nnc(Cc2ccccc2)[nH]1 [Example 40, 5-benzyl-N-(4-(chroman-5-yl)pyridin-2-yl)-4H-1,2,4-triazole-3-carboxamide]",1000 to 10000 nM
5,"Cc1ccc(OCCCCC(C)(C)O)cc1-c1cc(NC(=O)c2nnc(CC3CCCCC3)[nH]2)ncc1F [Example 495, 5-(cyclohexylmethyl)-N-(5-fluoro-4-(5-((5-hydroxyl-5-methylhexyl)oxy)-2-methylphenyl)pyridin-2-yl)-4H-1,2,4-triazole-3-carboxamide]",≤ 100 nM
6,"COCCCSc1ccc(C)c(-c2ccnc(NC(=O)c3nnc(Cc4ccccc4)[nH]3)c2)c1 [Example 59, 5-benzyl-N-(4-(5-(3-methoxypropylthio)-2-methylphenyl)pyridin-2-yl)-4H-1,2,4-triazole-3-carboxamide]",≤ 100 nM
7,"O=C(Nc1cc(-c2ccccc2OCCO)ccn1)c1nnc(Cc2ccccc2)[nH]1 [Example 124, 5-benzyl-N-(4-(2-(2-hydroxyethoxy)phenyl)pyridin-2-yl)-4H-1,2,4-triazole-3-carboxamide]",1000 to 10000 nM
8,"CC(C)Oc1ncccc1-c1ccnc(NC(=O)c2nnc(Cc3ccccc3)[nH]2)c1 [Example 23, 5-benzyl-N-(2-isopropyloxy-[3,4′-bipyridin]-2′-yl)-4H-1,2,4-triazole-3-carboxamide]",> 10000 nM
9,"CC(C)(O)COc1ccc(C(F)(F)F)c(-c2ccnc(NC(=O)c3nnc(CC4CCCC4)[nH]3)c2)c1 [Example 266, 5-(cyclopentylmethyl)-N-(4-(5-(2-hydroxyl-2-methylpropoxy)-2-(trifluoromethyl)phenyl)pyridin-2-yl)-4H-1,2,4-triazole-3-carboxamide]",≤ 100 nM
10,"Cc1ccc(OCCCC(C)(C)O)cc1-c1ccnc(NC(=O)c2nnc(Cc3cccnc3)[nH]2)c1 [Example 220, N-(4-(5-((4-hydroxy-4-methylpentyl)oxy)-2-methylphenyl)pyridin-2-yl)-5-(pyridin-3-ylmethyl)-4H-1,2,4-triazole-3-carboxamide]",≤ 100 nM
11,"CC(C)OCCOc1ccc(C(F)(F)F)c(-c2ccnc(NC(=O)c3nnc(Cc4ccccc4F)[nH]3)c2)c1 [Example 288, 5-(2-fluorobenzyl)-N-(4-(5-(2-isopropoxyethoxy)-2-(trifluoromethyl)phenyl)pyridin-2-yl)-4H-1,2,4-triazole-3-carboxamide]",≤ 100 nM
12,"O=C(Nc1cc(-c2cc(OCCC3CCOCC3)ccc2C(F)(F)F)ccn1)c1nnc(CC2CCCC2)[nH]1 [Example 309, 5-(cyclopentylmethyl)-N-(4-(5-(2-(tetrahydro-2H-pyran-4-yl)ethoxy)-2-(trifluoromethyl)phenyl)pyridin-2-yl)-4H-1,2,4-triazole-3-carboxamide]",≤ 100 nM
13,"COc1ccc(C)c(-c2ccnc(NC(=O)c3nnc(CC4CCCC4)[nH]3)c2)c1 [Example 102, 5-(cyclopentylmethyl)-N-(4-(5-methoxy-2-methylphenyl)pyridin-2-yl)-4H-1,2,4-triazole-3-carboxamide]",100 to 1000 nM
14,"O=C(Nc1cc(-c2cc(OCC3CCOCC3)ccc2Cl)ccn1)c1nnc(Cc2ccccc2)[nH]1 [Example 399, 5-benzyl-N-(4-(2-chloro-5-((tetrahydro-2H-pyran-4-yl)methoxy)phenyl)pyridin-2-yl)-4H-1,2,4-triazole-3-carboxamide]",≤ 100 nM
15,"Cc1cc(C(C)(C)O)ccc1-c1ccnc(NC(=O)c2nnc(Cc3ccccc3)[nH]2)c1 [Example 161, 5-benzyl-N-(4-(4-(2-hydroxypropan-2-yl)-2-methylphenyl)pyridin-2-yl)-4H-1,2,4-triazole-3-carboxamide]",100 to 1000 nM
16,"COc1ccc(F)cc1-c1ccnc(NC(=O)c2nnc(Cc3ccccc3)[nH]2)c1 [Example 14, 5-benzyl-N-(4-(5-fluoro-2-methoxyphenyl)pyridin-2-yl)-4H-1,2,4-triazole-3-carboxamide]",1000 to 10000 nM
17,"CCC(O)(CC)CCCOc1ccc(Cl)c(-c2ccnc(NC(=O)c3nnc(CC4CCCCC4)[nH]3)c2)c1 [Example 362, N-(4-(2-chloro-5-((4-ethyl-4-hydroxyhexyl)oxy)phenyl)pyridin-2-yl)-5-(cyclohexylmethyl)-4H-1,2,4-triazole-3-carboxamide]",≤ 100 nM
18,"O=C(Nc1cc(-c2cc(OCCC3CCOCC3)ccc2Cl)c(Cl)cn1)c1nnc(CC2CCCCC2)[nH]1 [Example 431, N-(5-chloro-4-(2-chloro-5-(2-(tetrahydro-2H-pyran-4-yl)ethoxy)phenyl)pyridin-2-yl)-5-(cyclohexylmethyl)-4H-1,2,4-triazole-3-carboxamide]",100 to 1000 nM
19,"Cc1ccc(OCC2CCN(C)CC2)cc1-c1ccnc(NC(=O)c2nnc(Cc3ccccc3F)[nH]2)c1 [Example 234, 5-(2-fluorobenzyl)-N-(4-(2-methyl-5-((1-methylpiperidin-4-yl)methoxy)phenyl)pyridin-2-yl)-4H-1,2,4-triazole-3-carboxamide]",≤ 100 nM
20,"CC(C)(O)CCCOc1ccc(Cl)c(-c2cc(NC(=O)c3nnc(CC4CCCC4)[nH]3)ncn2)c1 [Example 464, 5-(cyclopentylmethyl)-N-(6-(2-chloro-5-((4-hydroxy-4-methylpentyl)oxy)phenyl)pyrimidin-4-yl)-4H-1,2,4-triazole-3-carboxamide]",≤ 100 nM
21,"Cc1ccc(OCCCC(C)(C)O)cc1-c1cc(NC(=O)c2nnc(CC3CCCCC3)[nH]2)ncc1C [Example 241, 5-(cyclohexylmethyl)-N-(4-(5-((4-hydroxy-4-methylpentyl)oxy)-2-methylphenyl)-5-methylpyridin-2-yl)-4H-1,2,4-triazole-3-carboxamide]",100 to 1000 nM
22,"Cc1ccc(OC2COC2)cc1-c1ccnc(NC(=O)c2nnc(Cc3ccccc3)[nH]2)c1 [Example 86, 5-benzyl-N-(4-(2-methyl-5-(oxetan-3-yloxy)phenyl)pyridin-2-yl)-4H-1,2,4-triazole-3-carboxamide]",≤ 100 nM
23,"Cc1ccc(OCCOC(C)C)cc1-c1ccnc(NC(=O)c2nnc(Cc3ccccc3)[nH]2)c1 [Example 133, 5-benzyl-N-(4-(5-(2-isopropoxyethoxy)-2-methylphenyl)pyridin-2-yl)-4H-1,2,4-triazole-3-carboxamide]",≤ 100 nM
24,"Cc1ccc(OC(C)C)cc1-c1ccnc(NC(=O)c2nnc(Cc3ccccc3)[nH]2)c1 [Example 114, 5-benzyl-N-(4-(5-isopropoxy-2-methylphenyl)pyridin-2-yl)-4H-1,2,4-triazole-3-carboxamide]",100 to 1000 nM
25,Cc1ccc(N(C)CCCC(C)(C)O)cc1-c1ccnc(NC(=O)c2nnc(Cc3ccccc3)[nH]2)c1 [Example 168],100 to 1000 nM
